Assay results: patent US8338587B2, “Compounds” (AstraZeneca AB, priority 2009, dated 2012)

Target: T1, recombinant human GR (Homo sapiens, UniProt P04150)
T1 construct: purchased Panvera/Invitrogen P2812 (kit P2893)
T1 sequence (P04150 1-777): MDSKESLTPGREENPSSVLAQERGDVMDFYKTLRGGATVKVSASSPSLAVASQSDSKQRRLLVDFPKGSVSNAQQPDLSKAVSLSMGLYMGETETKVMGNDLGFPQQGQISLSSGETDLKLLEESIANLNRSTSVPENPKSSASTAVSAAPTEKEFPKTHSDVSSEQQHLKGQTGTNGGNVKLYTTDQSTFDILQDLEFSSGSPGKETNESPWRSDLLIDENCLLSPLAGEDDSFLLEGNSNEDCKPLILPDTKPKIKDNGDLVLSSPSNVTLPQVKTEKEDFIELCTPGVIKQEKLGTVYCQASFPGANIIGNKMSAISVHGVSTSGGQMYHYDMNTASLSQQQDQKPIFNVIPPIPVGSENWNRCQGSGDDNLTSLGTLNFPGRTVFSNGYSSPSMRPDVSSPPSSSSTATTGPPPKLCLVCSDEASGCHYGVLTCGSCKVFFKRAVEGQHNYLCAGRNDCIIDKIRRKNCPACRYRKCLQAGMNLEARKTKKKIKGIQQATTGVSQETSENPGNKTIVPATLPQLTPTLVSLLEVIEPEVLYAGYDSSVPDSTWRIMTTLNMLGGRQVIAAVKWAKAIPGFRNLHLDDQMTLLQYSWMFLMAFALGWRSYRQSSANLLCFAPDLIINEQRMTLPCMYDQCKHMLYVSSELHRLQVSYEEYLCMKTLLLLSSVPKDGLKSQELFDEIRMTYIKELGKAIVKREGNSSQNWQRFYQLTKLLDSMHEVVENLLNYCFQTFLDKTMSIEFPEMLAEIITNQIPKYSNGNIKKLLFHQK
Assay: Human Glucocorticoid Receptor (GR) Assay (fluorescence polarization competition, Panvera/Invitrogen kit)
Details: GS Red Fluoromone tracer, 2 hours at room temperature, 100% control 10 μM Dexamethasone, read-out: Inhibition of GR binding, IC50
Description: Human Glucocorticoid Receptor (GR) Assay The assay is based on a commercial kit from Panvera/Invitrogen (Part number P2893). The assay technology is fluorescence polarization. The kit utilises recombinant human GR (Panvera, Part number P2812), a Fluoromone™ labelled tracer (GS Red, Panvera, Part number P2894) and a Stabilizing Peptide 10× (Panvera, Part number P2815). The GR and Stabilizing Peptide reagents are stored at −70° C. while the GS Red is stored at −20° C. Also included in the kit are 1M DTT (Panvera, Part number P2325, stored at −20° C.) and GR Screening buffer 10× (Panvera, Part number P2814, stored at −70° C. initially but once thawed stored at room temperature). Avoid repeated freeze/thaws for all reagents. The GR Screening buffer 10× comprises 100 mM potassium phosphate, 200 mM sodium molybdate, 1 mM EDTA and 20% DMSO. Test compounds (1 μL) and controls (1 μL) in 100% DMSO were added to black is polystyrene 384-well plates (Greiner low volume black flat-bottom, part number 784076). 0% control was 100% DMSO and 100% control was 10 μM Dexamethasone. Background solution (8 μL; assay buffer 10×, Stabilizing Peptide, DTT and ice cold MQ water) was added to the background wells. GS Red solution (7 μL; assay buffer 10×, Stabilizing Peptide, DTT, GS Red and ice cold water) was added to all wells except background wells. GR solution (7 μL; assay buffer 10×, Stabilizing Peptide, DTT, GR and ice cold water) was added to all wells. The plate was sealed and incubated in a dark at room temperature for 2 hours. The plate was read in an Analyst plate reader (LJL Biosystems/Molecular Devices Corporation) or other similar plate reader capable of recording fluorescence polarization (excitation wavelength 530 nm, emission wavelength 590 nm and a dichroic mirror at 561 nm).

SMILES	IC50 [nM]
CCC(=O)O[C@]1(C(=O)SCC#N)[C@H](C)C[C@H]2[C@@H]3CCC4=Cc5c(cnn5-c5ccc(F)cc5)C[C@]4(C)[C@@]3(F)[C@@H](O)C[C@@]21C [Example 26, (1R,2R,3aS,3bS,10aS,10bR,11S,12aS)-10b-Fluoro-1-{[(cyanomethyl)sulfanyl]carbonyl}-7-(4-fluorophenyl)-11-hydroxy-2,10a,12a-trimethyl-1,2,3,3a,3b,4,5,7,10,10a,10b,11,12,12a-tetradecahydrocyclopenta[5,6]naphtho[1,2-f]indazol-1-yl propanoate]	17
CCC(=O)O[C@]1(C(=O)SCF)[C@H](C)C[C@H]2[C@@H]3CCC4=Cc5c(cnn5-c5ccc(F)nc5)C[C@]4(C)[C@@]3(F)[C@@H](O)C[C@@]21C [Example 2, (1R,2R,3aS,3bS,10aS,10bR,11S,12aS)-10b-Fluoro-1-{[(fluoromethyl)sulfanyl]carbonyl}-7-(6-fluoropyridin-3-yl)-11-hydroxy-2,10a,12a-trimethyl-1,2,3,3a,3b,4,5,7,10,10a,10b,11,12,12a-tetradecahydrocyclopenta[5,6]naphtho[1,2-f]indazol-1-yl propanoate]	1.9
COCC(=O)O[C@]1(C(=O)SCF)[C@H](C)C[C@H]2[C@@H]3CCC4=Cc5c(cnn5-c5ccc(F)nc5)C[C@]4(C)[C@@]3(F)[C@@H](O)C[C@@]21C [Example 1, (1R,2R,3aS,3bS,10aS,10bR,11S,12aS)-10b-Fluoro-1-{[(fluoromethyl)sulfanyl]carbonyl}-7-(6-fluoropyridin-3-yl)-11-hydroxy-2,10a,12a-trimethyl-1,2,3,3a,3b,4,5,7,10,10a,10b,11,12,12a-tetradecahydrocyclopenta[5,6]naphtho[1,2-f]indazol-1-yl methoxyacetate]	3.5

Second part, the molecule after the results:

IC50 [nM]	SMILES
0.55	C[C@]12Cc3cnn(-c4ccc(F)nc4)c3C=C1CC[C@H]1[C@@H]3CC[C@](OC(=O)C4CCOC4)(C(=O)SCC#N)[C@@]3(C)C[C@H](O)[C@@]12F (mixture of isomers) [Example 15 (racemate), (1R,3aS,3bS,10aS,10bR,11S,12aS)-1-{[(Cyanomethyl)sulfanyl]carbonyl}-10b-fluoro-7-(6-fluoropyridin-3-yl)-11-hydroxy-10a,12a-dimethyl-1,2,3,3a,3b,4,5,7,10,10a,10b,11,12,12a-tetradecahydrocyclopenta[5,6]naphtho[1,2-f]indazol-1-yl tetrahydrofuran-3-carboxylate]
0.65	C[C@]12Cc3cnn(-c4ccc(F)nc4)c3C=C1CC[C@H]1[C@@H]3CC[C@](OC(=O)[C@H]4CCCO4)(C(=O)SCCO)[C@@]3(C)C[C@H](O)[C@@]12F [Example 14, (1R,3aS,3bS,10aS,10bR,11S,12aS)-10b-Fluoro-7-(6-fluoropyridin-3-yl)-11-hydroxy-1-{[(2-hydroxyethyl)sulfanyl]carbonyl}-10a,12a-dimethyl-1,2,3,3a,3b,4,5,7, 10, 10a, 10,11,12,12a-tetradecahydrocyclopenta[5,6]naphtho[1,2-f]indazol-1-yl (2R)-tetrahydrofuran-2-carboxylate]
0.53	C[C@]12Cc3cnn(-c4ccc(F)nc4)c3C=C1CC[C@H]1[C@@H]3CC[C@](OC(=O)C4CCOC4)(C(=O)SCF)[C@@]3(C)C[C@H](O)[C@@]12F (mixture of isomers) [Example 16 (racemate), (1R,3aS,3bS,10aS,10bR,11S,12aS)-10b-Fluoro-1-{[(fluoromethyl)sulfanyl]carbonyl}-7-(6-fluoropyridin-3-yl)-11-hydroxy-10a,12a-dimethyl-1,2,3,3a,3b, 4,5,7,10,10a,10b,11,12,12a-tetradecahydrocyclopenta[5,6]naphtho[1,2-f]indazol-1-yl tetrahydrofuran-3-carboxylate]
